{"source": "patent US6413937B1", "about": "“Combinations for use in increasing the potency of a substrate for multidrug resistance related protein” (Dublin City University and Enterprise Ireland, priority 1996, dated 2002)", "key": {"A549 cell line": {"tested_on": "A549 cell line", "assay": "miniaturised in vitro colorimetric cell survival assay (acid phosphatase end-point), A549", "type": "cell-based, human", "conditions": "alone or + Adriamycin 40 ng/ml", "procedure": "(§1) All the results presented in this Example for the DLKP, A549 and OAW42-SR cell lines were derived using the same miniaturised in vitro calorimetric assay system. On Day 1 of the assay 1000 cells/well/100 μl were plated into 96-well plates. Cells were allowed to attach overnight and cell viability was visually assessed. […] NSAID plus chemotherapeutic drug) to be analysed were added onto the cells. The individual drugs were added separately in 50 μl quantities (4× stocks, to take into account the dilution effect of having 200 μl final volume in each well). The drugs were left on the cells for five further days (Day 7) and cell number was determined using the acid phosphatase end-point assay which uses p-nitrophenol phosphate as substrate (Martin, A. and Clynes, M. (1991) In Vitro Dev. Biol., 27A, 183-184). On Day 7 the culture medium was removed from the cells and they were washed once with phosphate buffered saline (PBS). […] After the incubation period 50 μl of 1N NaOH was added to each well to develop the colour. The plates were then read at 405 nm (reference 620 nm) on an ELISA plate-reader. […] All results are the cell survival means ±S.D. from a minimum of three experiments."}, "DLKP cells": {"tested_on": "DLKP cells", "assay": "Example 5 miniaturised in vitro cell toxicity assay, DLKP", "type": "cell-based, human", "procedure": "For the monolayer cell lines miniaturised in vitro assays were used to determine drug toxicity. On Day I cells were seeded at 1×10^3 cells/well in a 96-well plate and left to attach overnight. Drug was added on Day 2, and the assay was terminated on Day 7. Cell number was then evaluated by using one of two colorimetric end-point […]: the acid phosphatase assay (Martin, A., and Clynes, M. (1991); In vitro Cell and Development Biology, 27A: 183-184) or the crystal violet dye elution assay (Martin, A., and Clynes, M. (1993); Cytotechnology, 11:49-58). All assays were performed in triplicate."}, "MRP pump": {"target": "T1, MRP pump (Homo sapiens, UniProt P33527)", "T1 construct": "inside-out plasma membrane vesicles prepared from HL60ADR cells; endogenous in cells; host or cells: HL60ADR cells (plasma membrane vesicles)", "T1 sequence (P33527 whole entry)": "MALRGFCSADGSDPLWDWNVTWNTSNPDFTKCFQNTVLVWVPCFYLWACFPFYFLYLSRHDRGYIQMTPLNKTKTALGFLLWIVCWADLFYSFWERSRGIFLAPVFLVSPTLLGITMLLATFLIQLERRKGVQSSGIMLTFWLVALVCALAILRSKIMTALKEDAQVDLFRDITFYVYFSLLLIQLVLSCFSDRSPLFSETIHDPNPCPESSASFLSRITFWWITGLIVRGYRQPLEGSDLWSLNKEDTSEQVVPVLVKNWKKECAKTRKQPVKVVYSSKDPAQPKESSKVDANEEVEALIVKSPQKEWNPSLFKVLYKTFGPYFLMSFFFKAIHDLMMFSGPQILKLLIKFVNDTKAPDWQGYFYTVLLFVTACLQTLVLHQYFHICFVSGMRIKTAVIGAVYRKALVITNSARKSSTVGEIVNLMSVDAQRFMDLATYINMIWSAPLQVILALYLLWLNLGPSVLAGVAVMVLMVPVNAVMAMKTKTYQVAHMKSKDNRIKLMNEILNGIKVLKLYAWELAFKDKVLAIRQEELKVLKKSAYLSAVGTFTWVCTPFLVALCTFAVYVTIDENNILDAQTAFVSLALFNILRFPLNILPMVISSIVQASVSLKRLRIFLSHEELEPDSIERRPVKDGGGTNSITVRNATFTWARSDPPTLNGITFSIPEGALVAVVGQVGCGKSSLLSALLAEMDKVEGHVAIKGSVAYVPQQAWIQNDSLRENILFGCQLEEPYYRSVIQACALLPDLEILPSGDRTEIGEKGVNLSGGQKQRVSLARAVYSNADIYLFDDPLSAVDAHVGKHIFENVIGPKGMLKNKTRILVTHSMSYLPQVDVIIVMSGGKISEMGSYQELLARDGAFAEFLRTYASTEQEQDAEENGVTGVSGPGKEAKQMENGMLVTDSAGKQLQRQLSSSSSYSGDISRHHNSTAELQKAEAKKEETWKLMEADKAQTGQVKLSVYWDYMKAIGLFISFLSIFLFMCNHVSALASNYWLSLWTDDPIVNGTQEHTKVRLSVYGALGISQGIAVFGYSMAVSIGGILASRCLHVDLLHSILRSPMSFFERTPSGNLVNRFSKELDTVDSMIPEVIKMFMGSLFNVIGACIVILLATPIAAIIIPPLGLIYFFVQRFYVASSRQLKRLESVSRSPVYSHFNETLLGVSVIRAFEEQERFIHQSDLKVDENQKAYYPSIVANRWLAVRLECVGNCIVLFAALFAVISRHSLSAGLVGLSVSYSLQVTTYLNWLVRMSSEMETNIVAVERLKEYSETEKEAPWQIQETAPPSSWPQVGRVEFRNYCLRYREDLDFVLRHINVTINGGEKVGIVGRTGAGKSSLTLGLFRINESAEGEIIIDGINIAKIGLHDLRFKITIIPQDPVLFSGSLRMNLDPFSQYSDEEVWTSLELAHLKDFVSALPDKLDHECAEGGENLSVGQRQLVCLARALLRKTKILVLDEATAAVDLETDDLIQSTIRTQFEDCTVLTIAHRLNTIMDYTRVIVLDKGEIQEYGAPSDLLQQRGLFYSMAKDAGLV", "assay": "ATP-dependent transport of [3H]LTC4 into inside-out plasma membrane vesicles from HL60ADR cells", "type": "biochemical", "conditions": "for MRP-pump inhibitory activity: conclusion from Table 4", "procedure": "To determine if the NSAIDs were acting directly on the MRP pump the uptake of [^3H]LTC4 into inside-out plasma membrane vesicles prepared from HL60ADR cells was examined using a rapid filtration procedure (Ishikawa,T., et al. (1994); J. Biol. Chem. 269 (46); 29085-29093). ATP-dependent transport of [^3H]LTC4 into the membrane vesicles was measured by a rapid filtration method using a Millipore sampling manifold. The membrane vesicles were thawed at 37° C. before use and kept on ice. The reaction components consisted of 0.25 M sucrose/10 mM Tris.HCl pH 7.4/1 mM ATP/10 mM MgCl2/10 mM creatine phosphate/ 110 μg/ml creatine kinase and 10 nM [^3H]LTC4, with 50 μg of the inside-out vesicle preparation, in a final volume of 110 μl. This suspension was incubated at 37° C., with gentle mixing, and aliquots, 20 μl, were taken at the indicated points. Those aliquots were diluted in 1 ml of ice-cold incubation buffer before being applied to 0.22 μm Millipore GSWP nitrocellulose filters, pre-soaked in ice-cold incubation buffer, under suction. The filters were subsequently washed with 3 ml ice-cold incubation buffer, and absorbed radioactivity was measured using a scintillation counter (Beckman). In control experiments ATP was replaced with 5μ-AMP to determine the ATP-dependent transport."}, "[1]": {"tested_on": "GST prepared from DLKP cells", "assay": "total GST assay with 1-chloro-2,4-dinitrobenzene", "type": "biochemical, human", "procedure": "The other NSAIDs were tested in a total GST assay (Habig, W. H., and Jakoby, W. B., (1981); Methods Enzymol., 77: 218-231). Total cellular GST activity was assayed, using 1-chloro-2,4-dinitrobenzene as a substrate, according to the method of Habig, W. H., and Jakoby, W. B., (1981); supra. Due to spectrophotometric interference at 340 nm, caused by the majority of the NSAIDs, the assays were all performed at 360 nm, without any apparent effect on the rate of the control reaction The results are shown in Table 5."}, "MRP-specific substrates": {"tested_on": "MRP-specific substrates", "assay": "screen for enhancement of toxicity of MRP substrates by NSAIDs", "type": "cell-based", "conditions": "summary statements"}, "GSTs": {"tested_on": "GSTs", "conditions": "cited from earlier work"}, "DLKP cell line": {"tested_on": "DLKP cell line", "assay": "miniaturised in vitro colorimetric cell survival assay (acid phosphatase end-point), DLKP", "type": "cell-based, human", "procedure": "as §1"}, "HL-60ADR cells": {"tested_on": "HL-60ADR cells", "assay": "etoposide-induced apoptosis (nuclear fragmentation), HL-60ADR", "type": "cell-based", "conditions": "HL-60ADR (resistant); etoposide alone or co-treated with sulindac; FIG. 1", "procedure": "(§2) An experiment was carried out to determine the effect of the NSAID sulindac on etoposide-induced apoptosis in two cell lines, namely HL-60S and HL-60ADR. These cell lines were donated by Dr. Melvin Center, Kansas State University, Manhattan Kans. 66506, U.S.A. For the HL-60S and ADR cell lines the percentage of apoptotic cells within the cell population, following drug exposure, was used to quantify toxicity. Cells were plated in fresh medium at a concentration of 10^6 cells/ml in a 24-well plate (Greiner) and drugs were then added to the wells. A 200 μl sample from each well was taken after 4 and 8 hrs. Samples were cytospun for 2 min at 500 rpm using a Shandon Cytofuge3. After air-drying the cytospins were stained using a Romanowsky staining kit, Rappi-Diff II (Langanbach), dried and mounted in DPX (BDH). Slides were studied on an Optiphot microscope (Nikon) fitted with a 40× objective, and visualised on a monitor via a Mitsubishi CCD-100E colour CCD-camera and a 0.6× relay lens. Nuclear fragmentation was used as a morphological marker for apoptosis and a minimum of 200 cells were assessed in at least three different microscopic fields. Results were expressed as the percentage of apoptotic cells within the population. Each experiment was repeated in duplicate."}, "HL-60S cells": {"tested_on": "HL-60S cells", "assay": "etoposide-induced apoptosis (nuclear fragmentation), HL-60S", "type": "cell-based", "conditions": "HL-60S (sensitive); etoposide with sulindac; FIG. 2", "procedure": "as §2"}, "[2]": {"conditions": "read-out: % inhibition of transport of [3H]LTC4"}}, "note": "“Also recorded” adds a separate entry of the source.", "data": [{"compound": "COc1ccc2c(c1)c(CC(=O)O)c(C)n2C(=O)c1ccc(Cl)cc1", "note": "[Indomethacin, indomethacin]", "values": [{"measurement": "% cell survival", "setting": "A549 cell line; ix) Indomethacin 0.60 μg/ml", "result": "92.38 ± 13.30", "unit": "%"}, {"measurement": "% cell survival", "setting": "A549 cell line; ix) Indomethacin 1.20 μg/ml", "result": "87.54 ± 13.07", "unit": "%"}, {"measurement": "% cell survival", "setting": "A549 cell line; ix) Indomethacin 2.40 μg/ml", "result": "92.18 ± 7.09", "unit": "%"}, {"measurement": "% cell survival", "setting": "DLKP cells; Indomethacin 0.6 μg/ml, alone or + Teniposide 6.25 ng/ml", "result": "102.06 ± 5.11", "unit": "%"}, {"measurement": "% cell survival", "setting": "DLKP cells; Indomethacin 1.25 μg/ml, alone or + Teniposide 6.25 ng/ml", "result": "101.28 ± 5.12", "unit": "%"}, {"measurement": "% cell survival", "setting": "DLKP cells; Indomethacin 2.5 μg/ml, alone or + Teniposide 6.25 ng/ml", "result": "96.18 ± 3.43", "unit": "%"}, {"measurement": "MRP-pump inhibitory activity", "setting": "MRP pump", "result": "have MRP-pump inhibitory activity"}, {"measurement": "inhibition at 49 µM", "setting": "MRP pump; [2]", "result": 20, "unit": "%"}, {"measurement": "inhibition at 98 µM", "setting": "MRP pump; [2]", "result": 70, "unit": "%"}, {"measurement": "% Inhibition of GST", "setting": "[1]; 0.4 mM", "result": 54, "unit": "%"}, {"measurement": "enhancement of toxicity of MRP substrates", "setting": "MRP-specific substrates", "result": "positive; also recorded: have been found to enhance the toxicity of MRP-specific substrates"}, {"measurement": "inhibition of GSTs", "setting": "GSTs", "result": "inhibitor of GSTs"}]}, {"compound": "CC1=C(CC(=O)O)c2cc(F)ccc2/C1=C\\c1ccc([S+](C)[O-])cc1", "note": "(stereo not shown) [Sulindac, sulindac]", "values": [{"measurement": "% cell survival", "setting": "DLKP cell line; ii) Sulindac 1.5 μg/ml, alone or + Vincristine 1.0 ng/ml", "result": "111.6 ± 9.7", "unit": "%"}, {"measurement": "% cell survival", "setting": "DLKP cell line; ii) Sulindac 3 μg/ml, alone or + Vincristine 1.0 ng/ml", "result": "108.45 ± 10.6", "unit": "%"}, {"measurement": "% cell survival", "setting": "DLKP cell line; ii) Sulindac 6 μg/ml, alone or + Vincristine 1.0 ng/ml", "result": "114.1 ± 3.9", "unit": "%"}, {"measurement": "% cell survival", "setting": "DLKP cell line; iii) Sulindac 1.5 μg/ml, alone or + VP-16 100 ng/ml", "result": "95.07 ± 1.6", "unit": "%"}, {"measurement": "% cell survival", "setting": "DLKP cell line; iii) Sulindac 3 μg/ml, alone or + VP-16 100 ng/ml", "result": "93.68 ± 2.0", "unit": "%"}, {"measurement": "% cell survival", "setting": "DLKP cell line; iii) Sulindac 6 μg/ml, alone or + VP-16 100 ng/ml", "result": "90.75 ± 3.3", "unit": "%"}, {"measurement": "% cell survival", "setting": "DLKP cell line; iv) Sulindac 1.5 μg/ml, alone or + 5-FU 0.5 μg/ml", "result": "99.70 ± 7.7", "unit": "%"}, {"measurement": "% cell survival", "setting": "DLKP cell line; iv) Sulindac 3 μg/ml, alone or + 5-FU 0.5 μg/ml", "result": "98.79 ± 8.8", "unit": "%"}, {"measurement": "% cell survival", "setting": "DLKP cell line; iv) Sulindac 6 μg/ml, alone or + 5-FU 0.5 μg/ml", "result": "93.61 ± 5.9", "unit": "%"}, {"measurement": "% cell survival", "setting": "DLKP cell line; vii) Sulindac 1.5 μg/ml, alone or + PAT 1.5 μg/ml", "result": "96.51 ± 5.3", "unit": "%"}, {"measurement": "% cell survival", "setting": "DLKP cell line; vii) Sulindac 3.0 μg/ml, alone or + PAT 1.5 μg/ml", "result": "99.99 ± 2.9", "unit": "%"}, {"measurement": "% cell survival", "setting": "DLKP cell line; vii) Sulindac 6.0 μg/ml, alone or + PAT 1.5 μg/ml", "result": "94.23 ± 1.2", "unit": "%"}, {"measurement": "% cell survival", "setting": "A549 cell line; xi) Sulindac 1.50 μg/ml", "result": "100.00 ± 13.20", "unit": "%"}, {"measurement": "% cell survival", "setting": "A549 cell line; xi) Sulindac 3.20 μg/ml", "result": "101.00 ± 12.14", "unit": "%"}, {"measurement": "% cell survival", "setting": "A549 cell line; xi) Sulindac 6.30 μg/ml", "result": "96.01 ± 5.36", "unit": "%"}, {"measurement": "% cell survival", "setting": "DLKP cells; Sulindac 1.5 μg/ml, alone or + Epirubicin 1 ng/ml", "result": "99.92 ± 3.3", "unit": "%"}, {"measurement": "% cell survival", "setting": "DLKP cells; Sulindac 3.0 μg/ml, alone or + Epirubicin 1 ng/ml", "result": "100.29 ± 3.2", "unit": "%"}, {"measurement": "% cell survival", "setting": "DLKP cells; Sulindac 6.0 μg/ml, alone or + Epirubicin 1 ng/ml", "result": "100.07 ± 3.6", "unit": "%"}, {"measurement": "etoposide-induced apoptosis, percentage of apoptotic cells", "setting": "HL-60ADR cells", "result": "a significant increase in the amount of cells dying by apoptosis is observed"}, {"measurement": "etoposide-induced apoptosis, percentage of apoptotic cells", "setting": "HL-60S cells", "result": "the increased apoptosis is only due to an additive effect of both etoposide and sulindac"}, {"measurement": "inhibition at 45 µM", "setting": "MRP pump; 45 μM", "result": 25, "unit": "%"}, {"measurement": "inhibition at 89 µM", "setting": "MRP pump; 89 μM", "result": 69, "unit": "%"}, {"measurement": "MRP-pump inhibitory activity", "setting": "MRP pump", "result": "have MRP-pump inhibitory activity"}, {"measurement": "% Inhibition of GST", "setting": "[1]; 0.25 mM", "result": 42.6, "unit": "%"}, {"measurement": "enhancement of toxicity of MRP substrates", "setting": "MRP-specific substrates", "result": "have been found to enhance the toxicity of MRP-specific substrates"}]}]}
